From paper PMC8279484 (Journal of Medicinal Chemistry, 2021)

Assays:
[1] = tested on: THP-1 LUCIA monocytes; assay: Intrinsic cytotoxicity: LDH release without LPS; format: cell-based, human; conditions: for Intrinsic Toxicity Level: LDH-associated level of cytotoxicity (high / moderate / low); for Intrinsic Toxicity TC50 (pM): half-maximal intrinsic LDH-associated toxic activity, no LPS
Method: We investigated the potential cytotoxicity of all candidate sLXms by assaying LDH release.[50] The response to LPS was arbitrarily set to 100%, and values were expressed relative to this. As previously reported by others, LPS provokes LDH release.[51] […] Ultimately, untreated cells defined the spontaneous cell release thresholds.
Lactate dehydrogenase (LDH) was assayed in cell supernatants to investigate possible cytotoxicity of the lead compound. LDH is rapidly released into the culture medium after disruption of the plasma membrane.[67],[69] After 24 h of exposure to sLXms, vehicle, or controls, followed by LPS stimulation, as described above, THP-1-Lucia NF-κB-cell supernatants were collected and LDH was assayed. Cytotoxicity was evaluated relative to vehicle controls. Maximum releasable LDH was determined in cells lysed with 2% Triton-X-100 (Sigma-Aldrich, Ireland). LDH levels were assessed by reading the absorbance at 490 nm (protein) and 690 nm (background noise), using a spectrophotometer (SPECTRAMAX M2, Molecular Devices (U.K.) Limited).

[2] = tested on: NF-κB; assay: LPS-induced NF-κB-driven luciferase gene reporter assay in THP-1 Lucia monocytes; format: cell-based, human; conditions: for Rel. Slope: HS relative to LXA4 (1); for IC50: Homo sapiens, THP-1, read-out: Potency IC50; for IC50 / IC50 (range in words): LPS 50 ng/mL, 24 h; for Potency Rel. Pot.: IC50 relative to LXA4 (1); for Efficacy Rel. Eff.: Imax relative to LXA4 (1); for reduction of LPS-induced NF-κB-driven luciferase activity: approximate extent, 1 pM–1 μM; for (Single component) Rel. Score: Rel. Pot. / (Single component) Rel. Score: Rel. Sl.: score relative to LXA4 (1); for (Aggregate) Rel. PD Score: sum of efficacy, potency, slope scores relative to LXA4 (1)
Method: Mycoplasma-free THP-1-Lucia NF-κB cells were grown in an RPMI 1640 (Gibco) medium containing 2 mM L-glutamine, 1.50 g/L sodium bicarbonate, 4.50 g/L glucose, 10 mM N-(2-hydroxyethyl)piperazine-N′-ethanesulfonic acid (HEPES), and 1 mM sodium pyruvate. Then, 10% heat-inactivated fetal bovine serum (FBS) (30 min at 56 °C), 100 μg/mL Normocin, and Pen-Strep (50 U/mL to 50 μg/mL) were also added to the growth media. As THP-1-Lucia cells were resistant to Zeocin, the latter was used as a selective antibiotic (a high dose, i.e., 100 μg/mL, was alternated every 2 weeks with a low dose, i.e., 10 μg/mL).
LXA41 and all of the tested sLXms were dissolved in ethanol and further diluted in a culture medium (final ethanol concentration 0.1%; equivalent concentrations were used as the vehicle control). Prior to in vitro experiments, THP-1-Lucia NF-κB cells were harvested and plated at 1 × 10^5 cells/well on 96-well plates and left to settle in the incubator at 37 °C, 95% humidity, and 5% CO2, in 0.1% FBS-containing media, pretreated for 30 min with increasing doses of LXA41, sLXms (from 10^–12 to 10^–6 M), or appropriate controls, followed by stimulation with 50 ng/mL LPS for 24 h.
NFκB activity was monitored in the human THP-1 monocytic leukemia cell line containing a stably integrated NF-κB-inducible Lucia reporter construct (as previously reported).[21] When stimulated with LPS, the transcription factor NF-κB is activated, upregulating the synthesis of proinflammatory mediators, thus bringing about an inflammatory response. In these cells, NF-κB activation is linked to a […] luciferase gene and can be measured using luminescence.
Heat-killed listeria monocytogenes (HKLM) (10^8/mL) was used as a positive control.[28] The levels of NF-κB-induced Luciferase were then measured in a culture supernatant using QUANTI-Luc as the detection reagent, and measurements were taken on a bioluminescence reader.
After 24 h, the levels of NF-κB-induced Lucia were assayed in a cell culture supernatant using QUANTI-Luc, as a detection reagent, on a bioluminescence reader (Synergy HT, BioTek Instruments, Inc. Vermont). Aliquots of the supernatant were retained for subsequent cytokine and LDH assays. Cellular proteins were extracted with a radioimmunoprecipitation assay (RIPA) buffer (Thermo Fisher, Ireland), supplemented with protease inhibitors (Sigma-Aldrich, Ireland). Lysates were clarified by centrifugation (3200g, 10’, 4 °C) to remove cell debris, and the cell protein level was quantified by performing a bicinchoninic acid (BCA) assay (as per the manufacturer’s instructions) reading the protein absorbance at 570 nm, using a spectrophotometer (SPECTRAMAX M2, Molecular Devices (U.K.) Limited). A “relative luminescence unit” (RLU) was obtained using the average value of the lum/abs ratio of two replicates.
The “coding” of the heat-map indicates the arbitrary criteria to assign points to each single PD component (efficacy = Imax or Emax; potency = IC50 or EC50; slope = HS) to generate a final (aggregate) relative PD score. […] If a single PD component was equal to the reference level (x = 1), then the single-component relative score was arbitrarily set to 0 (gray). If a single PD component was smaller than the reference level (x < 1), then the single-component relative score was arbitrarily set to −1 (light red) or −2 (dark red). If the curve of a single PD component was best fitting to a flat line (x = 0), then the single-component relative score was arbitrarily set to −4 (purple) (Table S1).

[3] = tested on: THP-1 LUCIA monocytes; assay: In vitro safety study: Safety index (Si), activity versus toxicity; format: cell-based, human; conditions: for IC50: Homo sapiens, THP-1, highest IC50 among the LPS-challenged assays (NF-κB activity, cytokine, LDH release), read-out: Extrinsic Activity hIC50; for Safety Index TC50/IC50: ratio of intrinsic TC50 to extrinsic hIC50
Method: A postanalysis “safety study” was conducted on all QNX-sLXms. For each tested compound, we calculated an in vitro “Safety index” (Si) by relating its “anti-inflammatory half-maximal activity” (the highest dose among the IC50 of the extrinsic LPS-challenged phenotype: NF-κB activity, proinflammatory cytokine, and LDH release) to its intrinsic “toxicity” (expressed as the relative half-maximal LDH-associated cytotoxicity). The generated Si is potentially predictive of a translational “therapeutic” range: the higher the Si, the safer the molecule is. As summarized in Table S4, Si values from all tested compounds fall in a broad range (7–50).

[4] = tested on: THP-1-MF0 macrophage; assay: Phagocytosis of fluorescent E. coli bioparticles by THP-1-MF0 macrophages; format: cell-based, human; conditions: for EC50: 30 min pretreatment, 2 h bioparticles, read-out: Potency EC50; for (Aggregate) Rel. PD Score / Potency Rel. Pot. / Single comp. score Rel Eff. / Single comp. score Rel. Pot.: relative to LXA4 (1)
Method: Mycoplasma-free THP-1 monocytes were grown in an RPMI 1640 (Gibco) medium containing 2 mM L-glutamine, 2.00 g/L sodium bicarbonate, and 2.00 g/L glucose. Then, 10% (v/v) heat-inactivated FBS (30 min at 56 °C) and Pen-Strep (100 U/mL to 100 μg/mL) were supplemented to the growth media.
Cell adherence was allowed for 1 h and 30 min at 37 °C/5% CO2. Cells were then treated for 30 min with controls and phagocytosis effectors for testing (vehicle, LXs, Rvs, or sLXms). Subsequently, media containing controls/effectors were vacuum-aspirated and replaced with a solution containing fluorescently prelabeled E. coli-derived bioparticles and cells were incubated in the dark for 2 h at 37 °C/5% CO2 to allow particle ingestion by monocytes/macrophages. After that, media containing bioparticles were vacuum-aspirated and replaced with a solution containing trypan blue and cells were incubated for 1 min at room temperature to allow quenching of unbound particles to ensure specificity of the fluorescent signal, deriving only from ingested particles (not shown). After aspiration of Trypan, the fluorescence reading was immediately performed at the following conditions: end point; reading from the bottom of the plate; Ex.480/Em.520 nm.

[5] = tested on: C57bl/6 mice; assay: Murine carrageenan-induced paw edema; format: in vivo, mouse; conditions: for % relative to carageenan-induced level: Veh = 100; for % relative to carageenan-induced level / % reduction relative to carageenan-induced level: (R)-6, (R)-17 2 μg/kg, Naproxen 50 mg/kg p.o.; for Paw swelling Index: Mean: n = 3
Method: Then, 50 μL of 1% carrageenan was injected with an equivalent volume of saline injected into the contralateral paw. Inflammation was presented as the difference in paw thickness over time using gauge (POCO 2T; Kroeplin, GmbH, Surrey, U.K.). Data are presented as mean ± SEM, n = 3 mice/treatment group.

Structure (SMILES)	Intrinsic Toxicity Level [1]	Intrinsic Toxicity TC50 (pM) [1]	Rel. Slope [2]	IC50 [2]	Potency Rel. Pot. [2]	Efficacy Rel. Eff. [2]	IC50 (range in words) [2]	reduction of LPS-induced NF-κB-driven luciferase activity [2]	(Single component) Rel. Score: Rel. Pot. [2]	(Single component) Rel. Score: Rel. Sl. [2]	(Aggregate) Rel. PD Score [2]	IC50 [3]	Safety Index TC50/IC50 [3]	EC50 [4]	(Aggregate) Rel. PD Score [4]	Potency Rel. Pot. [4]	Single comp. score Rel Eff. [4]	Single comp. score Rel. Pot. [4]	also measured
CCC[C@@H](O)c1nc2ccccc2nc1/C=C/[C@@H](O)[C@@H](O)CCCC(=O)OC [(R)-7, Methyl (5S,6R,E)-5,6-Dihydroxy-8-(3-((R)-1-hydroxybutyl)quinoxalin-2-yl)oct-7-enoate]	Low-Mod.	2,000 pM	0.55	4 nM	0.015	1.21	“nM” range	30–35%	-2 (x < 0.1)	-1 (0.01 < x < 1)	-2	0.1 nM	20						intrinsic LDH release versus vehicle / spontaneous cell release ([1]; absence of LPS, 24 h, controls Dex 1 μM, 2 1 pM, 5 1 pM): lower than the vehicle
CCC[C@H](O)c1nc2ccccc2nc1/C=C/[C@@H](O)[C@@H](O)CCCC(=O)OC [(S)-7, Methyl (5S,6R,E)-5,6-Dihydroxy-8-(3-((S)-1-hydroxybutyl)quinoxalin-2-yl)oct-7-enoate]	Low-Mod.	110,000 pM	0.60	1 nM	0.1	1.50	“nM” range	30–35%	-2 (x < 0.1)	-1 (0.01 < x < 1)	-1	15 nM	7						Slope HS (Hill–Slope) ([2]; slope of concentration–response curve): -6
CCCCC[C@H](O)[C@H](O)/C=C/C=C/C=C\C=C\[C@@H](O)CCCC(=O)O [LXB4]														5 nM	-2	1	-2		
COc1ccc2cc([C@H](C)C(=O)O)ccc2c1 [Naproxen, reference compound]																			% relative to carageenan-induced level ([5]; 4h): 118%; % relative to carageenan-induced level ([5]; 8h): 40%; % relative to carageenan-induced level ([5]; 24h): 55%; % reduction relative to carageenan-induced level ([5]; 48h): 60%; % relative to carageenan-induced level ([5]; 48h): 160%; % reduction relative to carageenan-induced level ([5]; 72h): 450%; % relative to carageenan-induced level ([5]; 72h): 550%; effect on inflammatory response (paw swelling), in words ([5]; (R)-6, (R)-17 2 μg/kg ip, Naproxen 50 mg/kg po): inflammation persisted after 72 h; Paw swelling Index: Mean ([5]; Time 4h, (R)-6, (R)-17 2 μg/kg ip, Naproxen 50 mg/kg po, 1% carrageenan): 0.08; Paw swelling Index: Mean ([5]; Time 8h, (R)-6, (R)-17 2 μg/kg ip, Naproxen 50 mg/kg po): 0.16; Paw swelling Index: Mean ([5]; Time 24h, (R)-6, (R)-17 2 μg/kg ip, Naproxen 50 mg/kg po): 0.48; Paw swelling Index: Mean ([5]; Time 48h, (R)-6, (R)-17 2 μg/kg ip, Naproxen 50 mg/kg po): 0.65; Paw swelling Index: Mean ([5]; Time 72h, (R)-6, (R)-17 2 μg/kg ip, Naproxen 50 mg/kg po): 0.55
CC/C=C\C[C@H](O)/C=C/C=C\C=C\C=C\[C@@H](O)[C@@H](O)C/C=C\CCC(=O)O [RvD1]															1	10000		2 (x ≥ 5)	
CC[C@@H](O)/C=C/C=C\C[C@@H](O)/C=C/C=C/C=C\[C@@H](O)CCCC(=O)O [RvE1]														0.001 nM	0	5000	-2	2 (x ≥ 5)	
